Values belong to the molecule of their own block, whether it stands above or below them. The source made the active and inactive calls.
Legend:
[1] = biological target: Dual specificity protein phosphatase 3 (Homo sapiens, UniProt P51452); assay: inhibition constants for human DUSP3 – biochemical, colorimetric, SAR follow-up (AID 2004)
X-box-binding protein 1 = X-box-binding protein 1 (Homo sapiens, UniProt P17861); assay type: functional, Cricetulus griseus;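 also: confirmatory dose-response counter-screen serving a CHOP assay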
Hexokinase HKDC1 = Hexokinase HKDC1 (Homo sapiens, UniProt Q2TB90); assay: inhibition of HKDC1 glucose phosphorylation – biochemical, W721R variant, dose response (AID 504729); assay type: functional
[2] = biological target: Glutathione-S-transferase (Schistosoma japonicum, UniProt Q26513); assay: GST-antibody interaction or FRET quenching – biochemical, TR-FRET, artefact control for Vif-APOBEC3G degradation inhibitor project, dose response (AID 1117362); assay type: functional
[3] = viability loss in THP-1 monocytes – THP-1 cells, cytotoxicity control for Vif-APOBEC3G degradation inhibitor project, dose response (AID 1117359); assay type: functional; conditions: THP-1

Chain of Dual specificity protein phosphatase 3 (P51452 whole entry): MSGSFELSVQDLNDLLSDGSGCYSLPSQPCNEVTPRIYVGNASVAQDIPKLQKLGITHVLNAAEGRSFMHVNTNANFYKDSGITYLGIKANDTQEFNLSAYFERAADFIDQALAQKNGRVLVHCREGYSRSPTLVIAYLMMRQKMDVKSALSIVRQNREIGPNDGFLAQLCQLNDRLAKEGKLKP
Chain of Glutathione-S-transferase (Q26513 whole entry): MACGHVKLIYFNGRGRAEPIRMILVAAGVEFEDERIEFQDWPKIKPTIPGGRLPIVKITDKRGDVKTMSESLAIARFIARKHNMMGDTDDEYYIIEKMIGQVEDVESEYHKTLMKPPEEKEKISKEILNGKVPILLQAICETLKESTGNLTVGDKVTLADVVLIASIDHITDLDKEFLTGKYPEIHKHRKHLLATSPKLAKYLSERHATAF
Chain of X-box-binding protein 1 (P17861 whole entry): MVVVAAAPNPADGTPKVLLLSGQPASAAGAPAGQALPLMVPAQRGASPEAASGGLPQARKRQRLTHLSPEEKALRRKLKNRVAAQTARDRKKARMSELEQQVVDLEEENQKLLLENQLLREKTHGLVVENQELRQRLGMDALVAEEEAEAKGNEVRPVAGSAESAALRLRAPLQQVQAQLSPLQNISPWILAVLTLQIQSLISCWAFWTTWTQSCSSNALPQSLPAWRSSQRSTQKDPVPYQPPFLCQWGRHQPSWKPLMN
Chain of Hexokinase HKDC1 (Q2TB90 whole entry): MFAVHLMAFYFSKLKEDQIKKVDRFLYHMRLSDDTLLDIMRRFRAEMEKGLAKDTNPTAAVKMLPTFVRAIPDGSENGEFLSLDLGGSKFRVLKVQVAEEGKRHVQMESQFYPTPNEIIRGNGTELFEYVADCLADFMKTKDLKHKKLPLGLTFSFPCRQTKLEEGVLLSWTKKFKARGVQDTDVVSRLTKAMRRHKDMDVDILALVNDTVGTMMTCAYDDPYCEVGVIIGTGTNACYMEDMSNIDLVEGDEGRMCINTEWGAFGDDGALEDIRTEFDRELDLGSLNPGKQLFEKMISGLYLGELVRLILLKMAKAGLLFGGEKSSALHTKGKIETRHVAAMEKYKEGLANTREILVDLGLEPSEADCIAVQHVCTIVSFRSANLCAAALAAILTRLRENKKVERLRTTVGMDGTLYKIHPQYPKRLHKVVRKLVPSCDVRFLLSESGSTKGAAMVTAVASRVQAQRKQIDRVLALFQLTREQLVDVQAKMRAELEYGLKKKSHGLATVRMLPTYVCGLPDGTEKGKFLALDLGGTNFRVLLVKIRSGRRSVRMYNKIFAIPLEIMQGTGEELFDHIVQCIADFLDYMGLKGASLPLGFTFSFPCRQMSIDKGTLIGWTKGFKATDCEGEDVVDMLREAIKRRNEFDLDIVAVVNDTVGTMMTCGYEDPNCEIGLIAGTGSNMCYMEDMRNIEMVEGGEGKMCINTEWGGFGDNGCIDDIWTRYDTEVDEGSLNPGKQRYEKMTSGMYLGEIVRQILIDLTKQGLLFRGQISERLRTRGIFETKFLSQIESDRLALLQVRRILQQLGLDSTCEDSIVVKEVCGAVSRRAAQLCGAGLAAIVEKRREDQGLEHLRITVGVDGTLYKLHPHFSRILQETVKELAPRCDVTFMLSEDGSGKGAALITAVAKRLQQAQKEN

Structure (SMILES): O=C1/C(=C\c2ccc(-c3cccc(Cl)c3)o2)SC(=S)N1CCS(=O)(=O)O
Ki [1]: 3.13 µM (active)

Absolute IC50 (XBP1) (X-box-binding protein 1): 10 µM
Structure (SMILES): CC(C)Cc1ccc(C(C)C(=O)Nc2nccs2)cc1 (stereo not given)

Structure (SMILES): O=C1C(CO)=C(CO)C(=O)c2c(O)ccc(O)c21
IC50 (Hexokinase HKDC1): 15.2 µM (active)
IC50 [2]: > 100 µM (active)
CC50 [3]: 25.3 µM (active)

Reference: ChEMBL document CHEMBL1201862, “PubChem BioAssay data set” (2004)
